Series [1] is described as follows: Density (bulk, tapped, tablet). Type of series: physicochemical. The method, then: Next, the granulations are fed to a Manesty layer press fitted with two hoppers, one hopper is filled with the slow-layer granulation, the other hopper is filled with the fast-layer granulation. A bilayer tablet dosage form is then compressed by first forming a 690 mg second layer, then a 230 mg first layer is pressed in release retaining relation to the second layer. The first layer and second layers are pressed together under a pressure head of two tons. This manufacturing process produces the bilayer dosage form. […] The final composition of the second layer comprises 58 wt % racemic (±) ibuprofen, 15 wt % hydroxypropylmethylcellulose having a 242,000 molecular weight, 25 wt % hydroxypropylmethylcellulose having a 9,200 molecular weight and 2 wt % stearic acid.

The nature of series [2]: physchem.
The nature of series [3]: Crystal lattice energy. It counts as physicochemical.

Results on two compounds are retold here after patent US5338550A, “Stereoisomer therapy” (priority 1992, dated 1994).

≈ marks a conversion by molar mass, not a printed value.

Usually solubility stands for how much of the substance goes into solution per volume. Higher therefore signals a readily soluble substance. On to `CC(C)Cc1ccc([C@H](C)C(=O)O)cc1` [S(+) ibuprofen], for which, in series [1], the bulk density amounted to 0.277 g/cc, the tablet density was 1.038 g/cc and the tapped density came to 0.391 g/cc. The same compound gave a solubility in series [2] (artificial gastric juice) of 131 µg/mL (≈ 635 µM). In addition, the concentration in solution in series [2] (artificial intestinal juice) (solubility) was 6980 µg/mL (≈ 33800 µM). The compound also yielded a solubility in series [2] (water) of 134 µg/mL (≈ 650 µM). In addition, the crystal lattice energy in series [3] was 90.3 joules/g.
As to `CC(C)Cc1ccc(C(C)C(=O)O)cc1` (racemic) [racemic ibuprofen], in series [1], the bulk density worked out at 0.328 g/cc, the tablet density stood at 1.052 g/cc and the tapped density came out at 0.483 g/cc. Besides, the solubility in series [2] (artificial gastric juice) stood at 79 µg/mL (≈ 383 µM). Moreover, the solubility in series [2] (artificial intestinal juice) is 5910 µg/mL (≈ 28600 µM). Also, in series [2] (water), the concentration in solution (solubility) came to 82 µg/mL (≈ 398 µM). The same compound had a crystal lattice energy in series [3] of 117 joules/g.
